Reference: patent US12077503B2, “Substituted cyclic amides and their use as herbicides” (FMC CORPORATION, priority 2015, dated 2024)

How the values were obtained:
Type in all cases: in vivo
[1] = test system: velvetleaf (Abutilon theophrasti); assay: Test G Post-Emergence Protocol; conditions: Abutilon theophrasti, post-emergence, 312 h
Outline: (§1)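 Post-emergence herbicidal damage, scored visually 0–100 at 13 days. Application at 15.625, 62.5 or 250 g/ha onto 8-day-old plants grown under glasshouse control.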

[2] = test system: redroot pigweed (Amaranthus retroflexus); assay: Test G Post-Emergence Protocol; conditions: Amaranthus retroflexus, post-emergence, 312 h
Outline: as §1

[3] = test system: giant foxtail (Setaria faberi); assay: Test G Post-Emergence Protocol; conditions: Setaria faberi, post-emergence, 312 h
Outline: as §1

[4] = test system: corn (Zea mays); assay: Test G Post-Emergence Protocol; conditions: Zea mays, post-emergence, 312 h
Outline: as §1

[5] = test system: ivy-leaved morning glory (Ipomoea hederacea); assay: Test G Post-Emergence Protocol; conditions: Ipomoea, post-emergence, 312 h
Outline: as §1

[6] = test system: barnyardgrass (Echinochloa crus-galli); assay: Test G Post-Emergence Protocol; conditions: Echinochloa crus-galli, post-emergence, 312 h
Outline: as §1

[7] = test system: velvetleaf (Abutilon theophrasti); assay: Test G Pre-Emergence Protocol; conditions: Abutilon theophrasti, pre-emergence, 312 h, evaluated after 13 days
Outline: (§2)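 Pots of seeds in standard soil were grown for one day in a glasshouse (24/16 °C day/night, 14 h light, 65% humidity), then sprayed with compound in acetone/water 50:50 with 0.5% Tween 20 at 15.625, 62.5 or 250 g/ha. Damage was scored after 13 days on a 0 (none) to 100 (total) scale.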

[8] = test system: redroot pigweed (Amaranthus retroflexus); assay: Test G Pre-Emergence Protocol; conditions: Amaranthus retroflexus, pre-emergence, 312 h, evaluated after 13 days
Outline: as §2

[9] = test system: giant foxtail (Setaria faberi); assay: Test G Pre-Emergence Protocol; conditions: Setaria faberi, pre-emergence, 312 h, evaluated after 13 days
Outline: as §2

[10] = test system: corn (Zea mays); assay: Test G Pre-Emergence Protocol; conditions: Zea mays, pre-emergence, 312 h, evaluated after 13 days
Outline: as §2

[11] = test system: ivy-leaved morning glory (Ipomoea hederacea); assay: Test G Pre-Emergence Protocol; conditions: Ipomoea, pre-emergence, 312 h, evaluated after 13 days
Outline: as §2

[12] = test system: barnyardgrass (Echinochloa crus-galli); assay: Test G Pre-Emergence Protocol; conditions: Echinochloa crus-galli, pre-emergence, 312 h, evaluated after 13 days
Outline: as §2

Work on `Cc1c(Cl)ccc([C@@H]2CN(C)C(=O)[C@H]2C(=O)Nc2cccc(F)c2F)c1F` (racemic) [Compound 1473] yielded a pest or weed control at 15.625 g/ha ([1]; 15.625 g ai/ha, evaluated after 13 days (100=total damage to plant; 0=no damage to plant), read-out: Velvetleaf damage rating) of 0%, a pest or weed control at 62.5 g/ha ([1]; 62.5 g ai/ha, evaluated after 13 days, read-out: Velvetleaf damage rating (100=total damage to plant; 0=no damage to plant)) of 0% and a pest or weed control at 250 g/ha ([1]; 250 g ai/ha, evaluated after 13 days, read-out: damage to plant, Velvetleaf (100=total damage to plant; 0=no damage to plant)) of 10%. It also gave a pest or weed control at 15.625 g/ha ([2]; 15.625 g ai/ha, evaluated after 13 days (100=total damage to plant; 0=no damage to plant), read-out: Pigweed, Redroot damage rating) of 0%, a pest or weed control at 62.5 g/ha ([2]; 62.5 g ai/ha, evaluated after 13 days, read-out: Pigweed, Redroot damage rating (100=total damage to plant; 0=no damage to plant)) of 0% and a pest or weed control at 250 g/ha ([2]; 250 g ai/ha, evaluated after 13 days, read-out: damage to plant, Pigweed, Redroot (100=total damage to plant; 0=no damage to plant)) of 10%. The pest or weed control at 15.625 g/ha ([3]; 15.625 g ai/ha, evaluated after 13 days (100=total damage to plant; 0=no damage to plant), read-out: Foxtail, Giant damage rating) was 60%, the pest or weed control at 62.5 g/ha ([3]; 62.5 g ai/ha, evaluated after 13 days, read-out: Foxtail, Giant damage rating (100=total damage to plant; 0=no damage to plant)) was 70% and the pest or weed control at 250 g/ha ([3]; 250 g ai/ha, evaluated after 13 days, read-out: damage to plant, Foxtail, Giant (100=total damage to plant; 0=no damage to plant)) was 70%. It also gave a plant injury at 15.625 g/ha ([4]; 15.625 g ai/ha, evaluated after 13 days (100=total damage to plant; 0=no damage to plant), read-out: Corn damage rating) of 20%, a plant injury at 62.5 g/ha ([4]; 62.5 g ai/ha, evaluated after 13 days, read-out: Corn damage rating (100=total damage to plant; 0=no damage to plant)) of 10% and a plant injury at 250 g/ha ([4]; 250 g ai/ha, evaluated after 13 days, read-out: damage to plant, Corn (100=total damage to plant; 0=no damage to plant)) of 10%. For the same molecule, the pest or weed control at 15.625 g/ha ([5]; 15.625 g ai/ha, evaluated after 13 days (100=total damage to plant; 0=no damage to plant), read-out: Morningglory, Ivy-leaved damage rating) was 0%, the pest or weed control at 62.5 g/ha ([5]; 62.5 g ai/ha, evaluated after 13 days, read-out: Morningglory, Ivy-leaved damage rating (100=total damage to plant; 0=no damage to plant)) was 10% and the pest or weed control at 250 g/ha ([5]; 250 g ai/ha, evaluated after 13 days, read-out: damage to plant, Morningglory, Ivy-leaved (100=total damage to plant; 0=no damage to plant)) was 20%. The pest or weed control at 15.625 g/ha ([6]; 15.625 g ai/ha, evaluated after 13 days (100=total damage to plant; 0=no damage to plant), read-out: Barnyardgrass damage rating) was 40%, the pest or weed control at 62.5 g/ha ([6]; 62.5 g ai/ha, evaluated after 13 days, read-out: Barnyardgrass damage rating (100=total damage to plant; 0=no damage to plant)) was 40% and the pest or weed control at 250 g/ha ([6]; 250 g ai/ha, evaluated after 13 days, read-out: damage to plant, Barnyardgrass (100=total damage to plant; 0=no damage to plant)) was 50%. The pest or weed control at 15.625 g/ha ([7]; 15.625 g ai/ha, read-out: Velvetleaf damage rating (100=total damage to plant; 0=no damage to plant)) was 0%, the pest or weed control at 62.5 g/ha ([7]; 62.5 g ai/ha, 100=total damage to plant, 0=no damage to plant, read-out: plant damage rating, Velvetleaf) was 0% and the pest or weed control at 250 g/ha ([7]; 250 g ai/ha, read-out: Velvetleaf damage rating (100=total damage to plant; 0=no damage to plant)) was 0%. For the same molecule, the pest or weed control at 15.625 g/ha ([8]; 15.625 g ai/ha, read-out: Pigweed, Redroot damage rating (100=total damage to plant; 0=no damage to plant)) was 0%, the pest or weed control at 62.5 g/ha ([8]; 62.5 g ai/ha, 100=total damage to plant, 0=no damage to plant, read-out: plant damage rating, Pigweed, Redroot) was 0% and the pest or weed control at 250 g/ha ([8]; 250 g ai/ha, read-out: Pigweed, Redroot damage rating (100=total damage to plant; 0=no damage to plant)) was 70%. The pest or weed control at 15.625 g/ha ([9]; 15.625 g ai/ha, read-out: Foxtail, Giant damage rating (100=total damage to plant; 0=no damage to plant)) was 50%, the pest or weed control at 62.5 g/ha ([9]; 62.5 g ai/ha, 100=total damage to plant, 0=no damage to plant, read-out: plant damage rating, Foxtail, Giant) was 70% and the pest or weed control at 250 g/ha ([9]; 250 g ai/ha, read-out: Foxtail, Giant damage rating (100=total damage to plant; 0=no damage to plant)) was 80%. For the same molecule, the plant injury at 15.625 g/ha ([10]; 15.625 g ai/ha, read-out: Corn damage rating (100=total damage to plant; 0=no damage to plant)) was 0%, the plant injury at 62.5 g/ha ([10]; 62.5 g ai/ha, 100=total damage to plant, 0=no damage to plant, read-out: plant damage rating, Corn) was 0% and the plant injury at 250 g/ha ([10]; 250 g ai/ha, read-out: Corn damage rating (100=total damage to plant; 0=no damage to plant)) was 10%. For the same molecule, the pest or weed control at 15.625 g/ha ([11]; 15.625 g ai/ha, read-out: Morning-glory, Ivy-leaved damage rating (100=total damage to plant; 0=no damage to plant)) was 10%, the pest or weed control at 62.5 g/ha ([11]; 62.5 g ai/ha, 100=total damage to plant, 0=no damage to plant, read-out: plant damage rating, Morningglory, Ivy-leaved) was 0% and the pest or weed control at 250 g/ha ([11]; 250 g ai/ha, read-out: Morningglory, Ivy-leaved damage rating (100=total damage to plant; 0=no damage to plant)) was 10%. It also gave a pest or weed control at 15.625 g/ha ([12]; 15.625 g ai/ha, read-out: Barnyard grass damage rating (100=total damage to plant; 0=no damage to plant)) of 20%, a pest or weed control at 62.5 g/ha ([12]; 62.5 g ai/ha, 100=total damage to plant, 0=no damage to plant, read-out: plant damage rating, Barnyardgrass) of 40% and a pest or weed control at 250 g/ha ([12]; 250 g ai/ha, read-out: Barnyardgrass damage rating (100=total damage to plant; 0=no damage to plant)) of 70%.
